According to patent publication US20250066840A1, “Single-cell RNA sequencing analysis pipeline for predicting cell sensitivities to various drugs” (Regents of the University of Minnesota, priority 2023, published 2025):
pIC50: −log10 of the molar value. Where two headings read alike, the source gives them in different places.

What was measured:
PDAC organoids = settings: Shinkawa T et al, 2022; cited from earlier work
CFPAC1 cells = settings: Raghavan et al., 2021; cited from earlier work
[1] = tested on: docetaxel resistant DU145 cells; experiment: WST-1 cell viability, docetaxel-resistant DU145 cells; assay type: cell-based; settings: for pIC50: docetaxel resistant DU145 cells, 72-hour drug exposure, WST-1, read-out: mean half maximal inhibitory concentration (IC50)
Experimental: A DU145 prostate cancer cell line was obtained from American Type Culture […] (ATCC) and cultured in RPMI 1640 medium (Thermo Fisher Scientific), supplemented with 10% fetal bovine serum (FBS) (Gibco, Thermo Fisher Scientific) and maintained at 37° C. with 5% CO2. A docetaxel-resistant cell line model for DU145 was established by chronically exposing the parent cell line to stepwise increasing concentrations of docetaxel as previously described(41,42). Both cell lines were periodically monitored for mycoplasma using the Universal Mycoplasma Detection Kit following the manufacturer's protocol (A TCC). In vitro drug screening in both the docetaxei-resistant and control DU145 nodels was performed using either vemurafenib (PLX4032; CAS No. 918504-65-1) or docetaxel (RP-56976; CAS No. 114977-28-5) obtained from MedChem Express (Monmriouth Junction NJ, USA) dissolved in dimethylsulfoxide (DMSO) to obtain stock concentrations of 100 mM for vemurafenib or 5 mM for docetaxel.
(§1) Docetaxel-resistant and control DU145 cells were trypsinized, harvested, counterstained with Hoechst 33342 Fluorescent Stain (Thermo Scientific, Pierce Biotechnology, Rockford, IL) and resuspended in full growth media to 5×10^4 cells per mL prior to plating in 96-well microplates (Thermo Scientific) using a seeding density of 5×10^3 cells per well and allowed to attach for 24 hours. Following incubation, cells were treated with different concentrations of either docetaxel ranging from 0.92 nM to 6 uM, or vemurafenib ranging from 2.5 uM to 50 uM. Cell viability for each well was measured following a 72-hour drug exposure using the WST-1 assay [(Roche Applied. Science, Penzberg, Upper Bavaria, Germany) following the manufacturer's protocol. Absorbance at the 450 nm wavelength was assessed using the Synergy HTX Multi-Mode Plate Reader (BioTek, Winooski, VT)]. Absorbance values for each well were used to calculate percent viability relative to the no drug condition. […]

mesoderm-like cells = settings: RMS oPDX, Patel et al., 2022; cited from earlier work
[2] = tested on: docetaxel sensitive DU145 cells; experiment: WST-1 cell viability, docetaxel-sensitive (control) DU145 cells; assay type: cell-based; settings: Homo sapiens, DU-145, 72-hour drug exposure
Experimental: A DU145 prostate cancer cell line was obtained from American Type Culture […] (ATCC) and cultured in RPMI 1640 medium (Thermo Fisher Scientific), supplemented with 10% fetal bovine serum (FBS) (Gibco, Thermo Fisher Scientific) and maintained at 37° C. with 5% CO2. A docetaxel-resistant cell line model for DU145 was established by chronically exposing the parent cell line to stepwise increasing concentrations of docetaxel as previously described(41,42). Both cell lines were periodically monitored for mycoplasma using the Universal Mycoplasma Detection Kit following the manufacturer's protocol (A TCC). […]
as §1, with “Following incubation, cells were treated with different concentrations of either docetaxel ranging from 0.92 nM to 6 uM, or vemurafenib ranging from 2.5 uM to 50 uM.” left out, “VT)].” for “VT)]. Absorbance values for each well were used to calculate percent viability relative to the no drug condition.”

[3] = patients, cited from earlier work

For Nc1ccn([C@@H]2O[C@H](CO)[C@@H](O)C2(F)F)c(=O)n1 [Gemcitabine], the “response of basal-like vs classical-like PDAC organoids” value (PDAC organoids) is listed as “higher resistance”.

For CC(=O)O[C@H]1C(=O)[C@@]2(C)[C@H]([C@H](OC(=O)c3ccccc3)[C@]3(O)C[C@H](OC(=O)[C@H](O)[C@@H](NC(=O)c4ccccc4)c4ccccc4)C(C)=C1C3(C)C)[C@]1(OC(C)=O)CO[C@@H]1C[C@@H]2O [Paclitaxel], the “response of CFPAC1 cells grown in complete classical organoid media” value (CFPAC1 cells) is given as “responsive”.

In the case of CCc1c2c(nc3ccc(O)cc13)-c1cc3c(c(=O)n1C2)COC(=O)[C@]3(O)CC [SN-38], the “response of CFPAC1 cells grown in complete classical organoid media” value (CFPAC1 cells) is listed as “responsive”.

For CC(=O)O[C@@]12CO[C@@H]1C[C@H](O)[C@@]1(C)C(=O)[C@H](O)C3=C(C)[C@@H](OC(=O)[C@H](O)[C@@H](NC(=O)OC(C)(C)C)c4ccccc4)C[C@@](O)([C@@H](OC(=O)c4ccccc4)[C@H]21)C3(C)C [docetaxel], the “percent viability, resistant vs sensitive DU145 cells” value ([1]; docetaxel exposure, FIG. 9, two-way ANOVA) was “higher resistance”.

For CCc1c2c(nc3ccc(OC(=O)N4CCC(N5CCCCC5)CC4)cc13)-c1cc3c(c(=O)n1C2)COC(=O)[C@]3(O)CC [irinotecan], the “response of mesoderm-like cells compared to myoblast cells” value (mesoderm-like cells) is listed as “highly resistant”.

In the case of CCCS(=O)(=O)Nc1ccc(F)c(C(=O)c2c[nH]c3ncc(-c4ccc(Cl)cc4)cc23)c1F [vemurafenib], the pIC50 [2] is given as 4.55, the “average maximum serum concentration (Cmax)” value ([3]; previous trial (Zhang W et al., 2017)) is given as 61.4 µg/mL and the “average maximum serum concentration (Cmax)” value ([3]; previous trial, equivalent of 61.4 μg/mL) is given as 125.3 μM/L. For the same compound, the “tolerability at Cmax” value ([3]; previous trial) was “well tolerated”, the pIC50 ([1]; Homo sapiens, DU-145, 72 h) was 4.89 and the pIC50 [1] was 4.89.
